Test results reported in patent US20240393292A1, “ALLERGY ANTIGEN AND EPITOPE THEREOF” (HOYU CO., LTD., priority 2019, published 2024).

Legend:
[1] = tested on: IgE antibodies from patients; test: Wheat epitope mapping (2): overlapping 10-amino-acid peptide fragments shifted by one amino acid; type: binding, human; settings: partial sequence
Method in brief: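 Residual binding was banded as <30% none, 30–<50% poor, 50–<70% somewhat poor and ≥70% retained, relative to the parent overlapping sequence set to 100%. Values were chemiluminescent IgE signals from patient sera after subtracting secondary-antibody-only controls. The peptides were spot-synthesised 10-mers shifted by one amino acid.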

[2] = tested on: IgE antibody present in the serum of a wheat-allergic patient; test: Wheat epitope mapping (1): peptide array of overlapping 15-amino-acid peptides, chemiluminescence; type: binding, human; settings: bound = chemiluminescence value minus N2nd value of 5 non-wheat-allergic subjects at least 35,000; serum of 49 patients
Protocol: Epitope mapping was carried out using a library of overlapping peptides (length: 15 amino acids) corresponding to the amino acid sequences identified as allergy components of wheat. Specifically, the library of overlapping peptides was prepared on the basis of the amino acid sequences of SEQ ID NOs: 2, 4, 6, 8, 10, 12, 14, 16, 18, 20, 22, 24, 26 and 28.
The peptides to be synthesized were shifted by 10 amino acids.
For preparation of peptide arrays, the Intavis CelluSpots™ technique was used. Specifically, the peptide arrays were prepared by the following procedure: (1) synthesizing peptides of interest on amino-modified cellulose disks using an automated chemical synthesis apparatus (Intavis MultiPep RS), (2) dissolving the amino-modified cellulose disks to obtain a cellulose-bound peptide solution, and (3) spotting the cellulose-bound peptides onto coated glass slides. The details of each procedure are as described below.
Peptide synthesis was carried out in incremental steps through 9-fluorenylmethoxycarbonyl (Fmoc) chemical reaction on amino-modified cellulose disks in 384-well synthesis plates. Specifically, amino acids in which a Fmoc group is bonded to an amino group were activated in a solution of N,N′-diisopropylcarbodiimide (DIC) and 1-hydroxybenzotriazole (HOBt) in dimethylformamide (DMF) and added dropwise to the cellulose disks so that the Fmoc group-bound amino acids were bound to the amino groups on the cellulose disks (coupling). Unreacted amino groups were capped with acetic anhydride and washed with DMF. Furthermore, the Fmoc groups were eliminated from the amino groups of the amino acids bound to the amino groups on the cellulose disks by treatment with piperidine and washing with DMF. The amino acids bound to the amino groups on the cellulose disks were repetitively subjected to the coupling, the capping, and the Fmoc group elimination described above to elongate the amino terminus for peptide synthesis.
The peptides-bound cellulose disks of interest obtained above in the subsection titled “(1) Synthesis of peptide” were transferred to 96-well plates and treated with a side chain deprotection mixed solution of trifluoroacetic acid (TFA), dichloromethane, triisopropylsilane (TIPS), and water for deprotection of amino acid side chains. Then, the deprotected cellulose-bound peptides were dissolved in a mixed solution of TFA, […] acid (TFMSA), TIPS, and water and precipitated in […] methyl ether (TBME), and the precipitate was resuspended in dimethyl sulfoxide (DMSO) and mixed with a mixed solution of NaCl, sodium citrate, and water to obtain a peptide solution for slide spotting.
The peptide solution for slide spotting obtained above in the subsection titled “(2) Dissolution of amino-modified cellulose disk” was spotted onto Intavis CelluSpots™ slides using Intavis Slide Spotting Robot, and the slides were dried to prepare peptide arrays.
The presence or absence of binding, to each peptide fragment, of an IgE antibody present in the serum of a wheat-allergic patient was measured through antigen-antibody reaction using the peptide arrays. […]

binding of patient-specific IgE antibodies to 15-residue peptide [2]	other results	Substance
	Epitope sequence binding to IgE antibody, rank of the sequence ([1]; serum of patient P28 (WDEIA)): Preferably	2730 (YKIGGIGTV; REGION 1..9: note = epitope) [compound 2730]
	Epitope sequence binding to IgE antibody, rank of the sequence ([1]; serum of patient P28 (WDEIA)): Key	2731 (YKIGGI; REGION 1..6: note = epitope) [compound 2731]
	Epitope sequence binding to IgE antibody, rank of the sequence ([1]; serum of patient P29 (WDEIA)): Preferably	2733 (YKIGGI; REGION 1..6: note = epitope) [compound 2733]
	Epitope sequence binding to IgE antibody, rank of the sequence ([1]; serum of patient P29 (WDEIA)): Key	2734 (YKIGG; REGION 1..5: note = epitope) [compound 2734]
	Epitope sequence binding to IgE antibody, rank of the sequence ([1]; serum of patient P29 (WDEIA)): Key	2735 (GIGTVPVGRV; REGION 1..10: note = epitope) [compound 2735]
	Epitope sequence binding to IgE antibody, rank of the sequence ([1]; serum of patient P30 (WDEIA)): Preferably	2736 (YKIGGIGTVP; REGION 1..10: note = epitope) [compound 2736]
	Epitope sequence binding to IgE antibody, rank of the sequence ([1]; serum of patient P30 (WDEIA)): Key	2737 (KIGG; REGION 1..4: note = epitope) [compound 2737]
	Epitope sequence binding to IgE antibody, rank of the sequence ([1]; serum of patient P30 (WDEIA)): Key	2738 (VPVGR; REGION 1..5: note = epitope) [compound 2738]
	Epitope sequence binding to IgE antibody, rank of the sequence ([1]; serum of patient P31 (WDEIA)): Preferably	2739 (YKIGGIG; REGION 1..7: note = epitope) [compound 2739]
	Epitope sequence binding to IgE antibody, rank of the sequence ([1]; serum of patient P31 (WDEIA)): Key	2740 (KIGGI; REGION 1..5: note = epitope) [compound 2740]
	Epitope sequence binding to IgE antibody, rank of the sequence ([1]; serum of patient P31 (WDEIA)): Key	2741 (GIGTVPVGRV; REGION 1..10: note = epitope) [compound 2741]
	Epitope sequence binding to IgE antibody, rank of the sequence ([1]; serum of patient P33 (WDEIA)): Preferably	2742 (YKIGGIGTVP; REGION 1..10: note = epitope) [compound 2742]
	Epitope sequence binding to IgE antibody, rank of the sequence ([1]; serum of patient P33 (WDEIA)): Key	2743 (YKIGGIGTV; REGION 1..9: note = epitope) [compound 2743]
	Epitope sequence binding to IgE antibody, rank of the sequence ([1]; serum of patient P34 (WDEIA)): Preferably	2745 (KIGGIG; REGION 1..6: note = epitope) [compound 2745]
	Epitope sequence binding to IgE antibody, rank of the sequence ([1]; serum of patient P34 (WDEIA)): Key	2746 (KIGGI; REGION 1..5: note = epitope) [compound 2746]
confirmed to bind		SEQ ID NO: 29: common 15-residue epitope sequence of polypeptide (E1) (QQILWYHQQQPIQQQ; REGION 1..15: note = epitope)
confirmed to bind		SEQ ID NO: 131: common 15-residue epitope sequence of polypeptide (E2) (PPFPQQHQQFPQQQI; REGION 1..15: note = epitope)
confirmed to bind		SEQ ID NO: 191: common 15-residue epitope sequence of polypeptide (E3) (SQQQQPFPQQQQPLL; REGION 1..15: note = epitope)
confirmed to bind		SEQ ID NO: 281: common 15-residue epitope sequence of polypeptide (E4) (QQPQQPFPQQQQPLI; REGION 1..15: note = epitope)

binding of patient-specific IgE antibodies to 15-residue peptide [2]	other results	Substance
confirmed to bind		SEQ ID NO: 346: common 15-residue epitope sequence of polypeptide (E5) (PQQSFPQQQRPFIQP; REGION 1..15: note = epitope)
confirmed to bind		SEQ ID NO: 414: common 15-residue epitope sequence of polypeptide (E6) (KWRAVLKIGATEPSQ; REGION 1..15: note = epitope)
confirmed to bind		SEQ ID NO: 493: common 15-residue epitope sequence of polypeptide (E7) (PQQPYPQQQPQYLQP; REGION 1..15: note = epitope)
confirmed to bind		SEQ ID NO: 562: common 15-residue epitope sequence of polypeptide (E8) (KPSQQQPLPLQQILW; REGION 1..15: note = epitope)
confirmed to bind		SEQ ID NO: 640: common 15-residue epitope sequence of polypeptide (E9) (QVPLVQQQQFPGQQQ; REGION 1..15: note = epitope)
confirmed to bind		SEQ ID NO: 706: common 15-residue epitope sequence of polypeptide (E10) (VILFEETLYQSTKGG; REGION 1..15: note = epitope)
confirmed to bind		SEQ ID NO: 776: common 15-residue epitope sequence of polypeptide (E11) (QPYPQPQPFPSQQPY; REGION 1..15: note = epitope)
confirmed to bind		SEQ ID NO: 899: common 15-residue epitope sequence of polypeptide (E12) (LGQQQQQFPGQQQPF; REGION 1..15: note = epitope)
confirmed to bind		SEQ ID NO: 974: common 15-residue epitope sequence of polypeptide (E13) (QPFPQQQQPIIILQQ; REGION 1..15: note = epitope)
confirmed to bind		SEQ ID NO: 1010: common 15-residue epitope sequence of polypeptide (E14) (WLQQQLVPQLQQPLS; REGION 1..15: note = epitope)
confirmed to bind		SEQ ID NO: 1089: common 15-residue epitope sequence of polypeptide (E15) (STKGGKPFVDILKAG; REGION 1..15: note = epitope)
confirmed to bind		SEQ ID NO: 1142: common 15-residue epitope sequence of polypeptide (E16) (TEPSQLSIDQNAQGL; REGION 1..15: note = epitope)
confirmed to bind		SEQ ID NO: 1166: common 15-residue epitope sequence of polypeptide (E17) (PGQQQQFPPQQPYPQ; REGION 1..15: note = epitope)
confirmed to bind		SEQ ID NO: 1209: common 15-residue epitope sequence of polypeptide (E18) (PIQQQPQPFPQQPPC; REGION 1..15: note = epitope)
confirmed to bind		SEQ ID NO: 1257: common 15-residue epitope sequence of polypeptide (E19) (SSLVSMILPRSDCKV; REGION 1..15: note = epitope)
confirmed to bind		SEQ ID NO: 1297: common 15-residue epitope sequence of polypeptide (E20) (SINVENVEDNRRALR; REGION 1..15: note = epitope)
confirmed to bind		SEQ ID NO: 1367: common 15-residue epitope sequence of polypeptide (E21) (KPWQQQPLPPQQQPP; REGION 1..15: note = epitope)
confirmed to bind		SEQ ID NO: 1403: common 15-residue epitope sequence of polypeptide (E22) (QYLQPQQPISQQQAQ; REGION 1..15: note = epitope)
